In the NIST ThermoML archive (doi:10.1021/je049874h):
Numbers after ± are expanded uncertainties.

Details: Liquid

| vapor or sublimation pressure (263.15 K) | vapor or sublimation pressure (278.15 K) | vapor or sublimation pressure (293.15 K) | SMILES |
| --- | --- | --- | --- |
| 580.2 ± 2.8 kPa | 949.6 ± 3.6 kPa | 1473.2 ± 4.8 kPa | FCF [difluoromethane] |
| 69.6 ± 2 kPa | 125.1 ± 2 kPa | 209.4 ± 2.1 kPa | CCCC [butane] |
